Laboratory results taken from the kinase profiling compilation of Christmann-Franck et al. (2016).

Tests used:
Experiment in all cases: radiometric filter-binding kinase assay
[1] = target: MAP3K11 (human) (UniProt Q16584)
[2] = target: TTK (human) (UniProt P33981)
[3] = target: SYK (human) (UniProt P43405)
[4] = target: MELK (human) (UniProt Q14680)
[5] = target: CSK (human) (UniProt P41240)
[6] = target: BRSK2 (human) (UniProt Q8IWQ3); conditions: compound 10.0 µM
[7] = target: RPS6KA3 KD1 KD2 (human) (UniProt P51812)
[8] = target: FGFR1 (human) (UniProt P11362)
[9] = target: FLT1 (human) (UniProt P17948)
[10] = target: MAP3K7 TAB1 (human) (UniProt Q15750+O43318)
[11] = target: MARK4 (human) (UniProt Q96L34)
Sequence of MARK4 (human) (Q96L34 whole entry, looked up): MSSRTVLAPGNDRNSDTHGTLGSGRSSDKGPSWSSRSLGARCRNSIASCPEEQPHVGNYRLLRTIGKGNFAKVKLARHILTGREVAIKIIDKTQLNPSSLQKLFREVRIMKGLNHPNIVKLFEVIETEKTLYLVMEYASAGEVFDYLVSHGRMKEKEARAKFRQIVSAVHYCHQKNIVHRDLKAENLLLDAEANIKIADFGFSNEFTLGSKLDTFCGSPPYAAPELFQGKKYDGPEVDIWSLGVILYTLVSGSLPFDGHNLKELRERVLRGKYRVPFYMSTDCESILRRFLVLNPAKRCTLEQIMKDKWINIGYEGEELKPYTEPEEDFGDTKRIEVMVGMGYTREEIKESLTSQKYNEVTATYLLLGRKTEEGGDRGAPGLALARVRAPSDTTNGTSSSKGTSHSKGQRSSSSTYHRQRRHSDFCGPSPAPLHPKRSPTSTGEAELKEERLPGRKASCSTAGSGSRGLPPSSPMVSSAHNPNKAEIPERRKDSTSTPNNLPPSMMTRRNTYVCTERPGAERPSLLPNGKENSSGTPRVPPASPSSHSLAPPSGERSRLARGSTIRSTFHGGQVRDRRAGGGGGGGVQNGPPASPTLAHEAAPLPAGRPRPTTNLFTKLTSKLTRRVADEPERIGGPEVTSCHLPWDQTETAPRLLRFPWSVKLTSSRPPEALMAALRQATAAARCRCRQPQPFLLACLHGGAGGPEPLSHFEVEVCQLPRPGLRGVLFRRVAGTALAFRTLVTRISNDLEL

[12] = target: MAPK8 (human) (UniProt P45983)
Sequence of MAPK8 (human) (P45983 whole entry, looked up): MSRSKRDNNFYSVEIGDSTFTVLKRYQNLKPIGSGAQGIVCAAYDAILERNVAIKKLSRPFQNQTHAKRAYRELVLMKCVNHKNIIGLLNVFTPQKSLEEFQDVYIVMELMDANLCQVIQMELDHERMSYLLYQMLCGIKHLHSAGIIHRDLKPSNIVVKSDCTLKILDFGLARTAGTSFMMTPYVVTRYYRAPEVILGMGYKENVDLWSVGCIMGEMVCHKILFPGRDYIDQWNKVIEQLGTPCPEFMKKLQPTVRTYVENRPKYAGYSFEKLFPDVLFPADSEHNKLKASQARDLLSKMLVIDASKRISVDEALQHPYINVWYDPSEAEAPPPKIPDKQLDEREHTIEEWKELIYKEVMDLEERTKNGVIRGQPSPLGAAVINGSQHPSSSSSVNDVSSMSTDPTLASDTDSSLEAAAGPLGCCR

[13] = target: PLK1 (human) (UniProt P53350)
[14] = target: BRSK1 (human) (UniProt Q8TDC3)
Sequence of BRSK1 (human) (Q8TDC3 whole entry, looked up): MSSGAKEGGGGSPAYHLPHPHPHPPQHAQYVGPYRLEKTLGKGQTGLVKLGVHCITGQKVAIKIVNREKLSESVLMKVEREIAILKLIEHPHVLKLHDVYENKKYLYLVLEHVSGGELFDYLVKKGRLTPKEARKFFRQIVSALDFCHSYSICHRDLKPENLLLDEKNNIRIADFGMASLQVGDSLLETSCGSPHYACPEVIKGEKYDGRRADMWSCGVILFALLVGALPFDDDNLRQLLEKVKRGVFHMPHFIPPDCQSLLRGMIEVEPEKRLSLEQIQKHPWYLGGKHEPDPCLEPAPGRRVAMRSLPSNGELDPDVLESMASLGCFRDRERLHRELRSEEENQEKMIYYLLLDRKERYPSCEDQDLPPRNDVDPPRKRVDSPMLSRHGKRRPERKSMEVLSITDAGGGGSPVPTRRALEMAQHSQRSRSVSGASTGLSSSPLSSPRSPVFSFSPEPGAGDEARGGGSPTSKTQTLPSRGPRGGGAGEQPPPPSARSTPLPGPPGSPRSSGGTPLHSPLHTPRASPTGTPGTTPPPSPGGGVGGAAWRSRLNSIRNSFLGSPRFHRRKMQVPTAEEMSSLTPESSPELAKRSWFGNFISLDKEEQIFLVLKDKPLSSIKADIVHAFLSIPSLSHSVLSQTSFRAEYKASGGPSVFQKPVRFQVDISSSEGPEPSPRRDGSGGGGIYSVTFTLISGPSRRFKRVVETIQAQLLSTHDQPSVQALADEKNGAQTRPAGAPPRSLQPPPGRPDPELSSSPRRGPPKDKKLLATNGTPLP

[15] = tested on: RPS6KB1 (human), P23443 [T412E]
[16] = target: PIM3 (human) (UniProt Q86V86)
[17] = target: PIM1 (human) (UniProt P11309)
[18] = target: RIPK2 (human) (UniProt O43353)
[19] = target: TBK1 (human) (UniProt Q9UHD2)
[20] = target: EPHB2 (human) (UniProt P29323)
[21] = target: JAK2 JH1 JH2 (human) (UniProt O60674)
[22] = tested on: PAK2 (human), Q13177 [T402E]
[23] = target: INSR (human) (UniProt P06213)
[24] = target: CDK2 CCNA2 (human) (UniProt P20248+P24941)
[25] = target: IRAK4 (human) (UniProt Q9NWZ3)
[26] = target: MAPKAPK3 (human) (UniProt Q16644)
[27] = tested on: SGK1 (human), O00141 [S422D]
[28] = target: INSRR (human) (UniProt P14616)
[29] = target: MYLK (human) (UniProt Q15746)
Sequence of MYLK (human) (Q15746 whole entry, looked up): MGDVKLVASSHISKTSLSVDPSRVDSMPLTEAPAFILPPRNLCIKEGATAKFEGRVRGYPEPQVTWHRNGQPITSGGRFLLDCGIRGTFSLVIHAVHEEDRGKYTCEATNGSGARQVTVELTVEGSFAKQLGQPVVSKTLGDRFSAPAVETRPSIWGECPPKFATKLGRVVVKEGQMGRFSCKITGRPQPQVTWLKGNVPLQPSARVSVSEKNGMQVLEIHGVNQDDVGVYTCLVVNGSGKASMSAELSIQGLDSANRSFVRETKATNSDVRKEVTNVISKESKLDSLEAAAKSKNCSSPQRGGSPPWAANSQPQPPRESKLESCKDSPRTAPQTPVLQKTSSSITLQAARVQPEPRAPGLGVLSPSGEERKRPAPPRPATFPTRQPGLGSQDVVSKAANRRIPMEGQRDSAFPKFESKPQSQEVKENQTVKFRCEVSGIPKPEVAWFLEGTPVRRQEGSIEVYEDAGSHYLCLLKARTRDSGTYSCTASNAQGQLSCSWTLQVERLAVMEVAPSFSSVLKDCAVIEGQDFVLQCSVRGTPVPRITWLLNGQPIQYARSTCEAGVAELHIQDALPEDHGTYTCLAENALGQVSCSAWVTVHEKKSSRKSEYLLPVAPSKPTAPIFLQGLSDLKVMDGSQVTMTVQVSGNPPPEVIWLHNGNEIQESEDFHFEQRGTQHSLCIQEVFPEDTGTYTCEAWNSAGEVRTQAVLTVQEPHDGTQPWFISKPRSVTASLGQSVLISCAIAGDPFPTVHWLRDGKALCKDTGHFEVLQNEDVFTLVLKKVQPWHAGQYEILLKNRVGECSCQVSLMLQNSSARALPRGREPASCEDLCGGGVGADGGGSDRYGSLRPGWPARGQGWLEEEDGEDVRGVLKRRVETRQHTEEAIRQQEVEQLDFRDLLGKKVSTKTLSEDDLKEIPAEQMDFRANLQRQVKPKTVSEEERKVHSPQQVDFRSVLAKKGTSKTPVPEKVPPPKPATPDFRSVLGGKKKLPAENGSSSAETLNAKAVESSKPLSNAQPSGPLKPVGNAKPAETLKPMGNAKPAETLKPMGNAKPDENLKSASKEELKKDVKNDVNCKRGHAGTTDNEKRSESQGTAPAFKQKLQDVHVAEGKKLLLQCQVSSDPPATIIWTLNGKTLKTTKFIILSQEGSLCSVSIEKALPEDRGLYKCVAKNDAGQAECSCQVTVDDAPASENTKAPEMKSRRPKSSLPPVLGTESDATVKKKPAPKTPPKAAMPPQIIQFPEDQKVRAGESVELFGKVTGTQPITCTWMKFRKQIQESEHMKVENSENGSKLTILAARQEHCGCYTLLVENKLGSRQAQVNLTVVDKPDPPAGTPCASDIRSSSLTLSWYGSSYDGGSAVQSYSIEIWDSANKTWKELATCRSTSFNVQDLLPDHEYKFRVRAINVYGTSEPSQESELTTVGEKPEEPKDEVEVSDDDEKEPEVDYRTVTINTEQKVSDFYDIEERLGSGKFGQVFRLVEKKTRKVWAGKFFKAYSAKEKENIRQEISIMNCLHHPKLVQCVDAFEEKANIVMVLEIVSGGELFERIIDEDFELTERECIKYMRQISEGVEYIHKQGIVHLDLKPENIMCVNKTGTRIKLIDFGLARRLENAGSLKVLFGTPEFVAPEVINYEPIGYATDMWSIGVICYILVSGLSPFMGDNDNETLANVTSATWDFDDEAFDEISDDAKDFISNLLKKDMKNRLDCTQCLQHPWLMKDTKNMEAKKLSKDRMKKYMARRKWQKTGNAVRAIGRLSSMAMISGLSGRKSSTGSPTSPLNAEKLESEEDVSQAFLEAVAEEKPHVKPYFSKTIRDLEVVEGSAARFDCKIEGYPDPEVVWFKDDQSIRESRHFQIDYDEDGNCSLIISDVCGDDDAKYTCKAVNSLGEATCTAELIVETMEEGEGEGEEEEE

[30] = target: MAP2K2 (human) (UniProt P36507)
Sequence of MAP2K2 (human) (P36507 whole entry, looked up): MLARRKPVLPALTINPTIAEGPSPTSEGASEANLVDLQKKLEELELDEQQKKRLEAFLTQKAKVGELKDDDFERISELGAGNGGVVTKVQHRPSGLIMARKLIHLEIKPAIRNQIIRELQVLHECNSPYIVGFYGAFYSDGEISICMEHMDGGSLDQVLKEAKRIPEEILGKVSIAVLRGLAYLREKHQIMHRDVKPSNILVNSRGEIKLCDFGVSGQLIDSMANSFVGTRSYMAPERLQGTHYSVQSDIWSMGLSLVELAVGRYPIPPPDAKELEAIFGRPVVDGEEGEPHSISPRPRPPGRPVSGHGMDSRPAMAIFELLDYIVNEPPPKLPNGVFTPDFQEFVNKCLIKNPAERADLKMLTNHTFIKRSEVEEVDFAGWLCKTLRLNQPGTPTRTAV

[31] = target: AURKA (human) (UniProt O14965)
[32] = target: EPHA4 (human) (UniProt P54764)
[33] = target: CLK2 (human) (UniProt P49760)
[34] = target: CSNK1D (human) (UniProt P48730)
[35] = target: MAPK12 (human) (UniProt P53778)

Sequence of MELK (human) (Q14680 whole entry, looked up): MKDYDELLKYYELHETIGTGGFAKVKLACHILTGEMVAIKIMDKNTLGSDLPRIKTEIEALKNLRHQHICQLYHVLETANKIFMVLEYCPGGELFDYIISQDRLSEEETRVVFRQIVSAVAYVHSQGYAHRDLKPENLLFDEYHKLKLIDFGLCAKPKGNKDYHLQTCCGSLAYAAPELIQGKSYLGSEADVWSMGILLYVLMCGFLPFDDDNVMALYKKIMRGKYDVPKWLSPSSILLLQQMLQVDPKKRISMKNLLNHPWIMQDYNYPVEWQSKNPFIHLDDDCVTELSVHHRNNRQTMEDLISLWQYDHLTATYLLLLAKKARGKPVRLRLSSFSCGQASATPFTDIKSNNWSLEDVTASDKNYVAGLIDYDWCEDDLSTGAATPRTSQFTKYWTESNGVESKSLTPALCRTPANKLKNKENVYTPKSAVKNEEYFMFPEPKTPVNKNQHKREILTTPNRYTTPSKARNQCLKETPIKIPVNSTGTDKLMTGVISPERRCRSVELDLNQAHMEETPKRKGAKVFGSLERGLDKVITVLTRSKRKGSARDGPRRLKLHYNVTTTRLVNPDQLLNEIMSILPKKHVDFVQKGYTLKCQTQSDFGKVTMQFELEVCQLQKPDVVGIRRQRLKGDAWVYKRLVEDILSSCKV

COc1cc2ncn(-c3cc(OCc4ccccc4S(C)(=O)=O)c(C#N)s3)c2cc1OC
residual activity ([1]; compound 1.0 µM): 5% | residual activity ([1]; compound 10.0 µM): 3% | residual activity ([2]; compound 1.0 µM): 83% | residual activity ([3]; compound 1.0 µM): 95% | residual activity ([3]; compound 10.0 µM): 87% | residual activity ([4]; compound 1.0 µM): 84% | residual activity ([4]; compound 10.0 µM): 59% | residual activity ([5]; compound 1.0 µM): 81% | residual activity ([5]; compound 10.0 µM): 74% | residual activity [6]: 30% | residual activity ([7]; compound 1.0 µM): 82% | residual activity ([7]; compound 10.0 µM): 57% | residual activity ([8]; compound 1.0 µM): 49% | residual activity ([8]; compound 10.0 µM): 49% | residual activity ([9]; compound 1.0 µM): 15% | residual activity ([9]; compound 10.0 µM): 23% | residual activity ([10]; compound 1.0 µM): 100% | residual activity ([10]; compound 10.0 µM): 70% | residual activity ([11]; compound 1.0 µM): 57% | residual activity ([11]; compound 10.0 µM): 42% | residual activity ([12]; compound 1.0 µM): 92% | residual activity ([12]; compound 10.0 µM): 87% | residual activity ([13]; compound 1.0 µM): 65% | residual activity ([13]; compound 10.0 µM): 55% | residual activity ([14]; compound 1.0 µM): 40% | residual activity ([15]; compound 1.0 µM): 87% | residual activity ([15]; compound 10.0 µM): 66% | residual activity ([16]; compound 1.0 µM): 90% | residual activity ([16]; compound 10.0 µM): 73% | residual activity ([17]; compound 1.0 µM): 94% | residual activity ([17]; compound 10.0 µM): 71% | residual activity ([18]; compound 1.0 µM): 14% | residual activity ([18]; compound 10.0 µM): 6% | residual activity ([19]; compound 1.0 µM): 21% | residual activity ([19]; compound 10.0 µM): 17% | residual activity ([20]; compound 1.0 µM): 62% | residual activity ([20]; compound 10.0 µM): 50% | residual activity ([21]; compound 1.0 µM): 34% | residual activity ([21]; compound 10.0 µM): 18% | residual activity ([22]; compound 1.0 µM): 94% | residual activity ([22]; compound 10.0 µM): 111% | residual activity ([23]; compound 1.0 µM): 104% | residual activity ([23]; compound 10.0 µM): 105% | residual activity ([24]; compound 1.0 µM): 100% | residual activity ([24]; compound 10.0 µM): 99% | residual activity ([25]; compound 1.0 µM): 13% | residual activity ([25]; compound 10.0 µM): 6% | residual activity ([26]; compound 1.0 µM): 93% | residual activity ([26]; compound 10.0 µM): 67% | residual activity ([27]; compound 1.0 µM): 105% | residual activity ([28]; compound 1.0 µM): 77% | residual activity ([28]; compound 10.0 µM): 66% | residual activity ([29]; compound 1.0 µM): 89% | residual activity ([29]; compound 10.0 µM): 61% | residual activity ([30]; compound 1.0 µM): 75% | residual activity ([30]; compound 10.0 µM): 57% | residual activity ([31]; compound 1.0 µM): 29% | residual activity ([31]; compound 10.0 µM): 6% | residual activity ([32]; compound 1.0 µM): 57% | residual activity ([32]; compound 10.0 µM): 45% | residual activity ([33]; compound 10.0 µM): 18% | residual activity ([34]; compound 1.0 µM): 89% | residual activity ([34]; compound 10.0 µM): 91%

CCCC(CCC)C(=O)O
residual activity ([1]; compound 10.0 µM): 104% | residual activity ([1]; compound 50.0 µM): 96% | residual activity ([2]; compound 10.0 µM): 101% | residual activity ([2]; compound 50.0 µM): 82% | residual activity ([3]; compound 10.0 µM): 100% | residual activity ([3]; compound 50.0 µM): 98% | residual activity ([4]; compound 10.0 µM): 97% | residual activity ([4]; compound 50.0 µM): 92% | residual activity ([5]; compound 10.0 µM): 91% | residual activity ([5]; compound 50.0 µM): 93% | residual activity ([7]; compound 1.0 µM): 94% | residual activity ([7]; compound 10.0 µM): 94% | residual activity ([7]; compound 50.0 µM): 93% | residual activity ([8]; compound 10.0 µM): 104% | residual activity ([8]; compound 50.0 µM): 104% | residual activity ([9]; compound 10.0 µM): 84% | residual activity ([9]; compound 50.0 µM): 89% | residual activity ([10]; compound 10.0 µM): 92% | residual activity ([11]; compound 10.0 µM): 106% | residual activity ([11]; compound 50.0 µM): 106% | residual activity ([12]; compound 1.0 µM): 86% | residual activity ([12]; compound 10.0 µM): 95% | residual activity ([12]; compound 50.0 µM): 92% | residual activity ([13]; compound 1.0 µM): 97% | residual activity ([13]; compound 10.0 µM): 95% | residual activity ([13]; compound 50.0 µM): 93% | residual activity ([14]; compound 10.0 µM): 102% | residual activity ([14]; compound 50.0 µM): 124% | residual activity ([15]; compound 1.0 µM): 81% | residual activity ([15]; compound 10.0 µM): 84% | residual activity ([15]; compound 50.0 µM): 91% | residual activity ([16]; compound 10.0 µM): 97% | residual activity ([16]; compound 50.0 µM): 95% | residual activity ([17]; compound 10.0 µM): 98% | residual activity ([17]; compound 50.0 µM): 100% | residual activity ([18]; compound 10.0 µM): 104% | residual activity ([18]; compound 50.0 µM): 90% | residual activity ([19]; compound 10.0 µM): 99% | residual activity ([19]; compound 50.0 µM): 97% | residual activity ([20]; compound 10.0 µM): 106% | residual activity ([20]; compound 50.0 µM): 126% | residual activity ([21]; compound 10.0 µM): 80% | residual activity ([21]; compound 50.0 µM): 86% | residual activity ([35]; compound 1.0 µM): 93% | residual activity ([35]; compound 10.0 µM): 95% | residual activity ([35]; compound 50.0 µM): 89% | residual activity ([22]; compound 10.0 µM): 86% | residual activity ([22]; compound 50.0 µM): 91% | residual activity ([23]; compound 10.0 µM): 66% | residual activity ([23]; compound 50.0 µM): 77% | residual activity ([24]; compound 1.0 µM): 90% | residual activity ([24]; compound 10.0 µM): 76% | residual activity ([24]; compound 50.0 µM): 80% | residual activity ([25]; compound 10.0 µM): 94% | residual activity ([25]; compound 50.0 µM): 99% | residual activity ([26]; compound 1.0 µM): 90% | residual activity ([26]; compound 10.0 µM): 93% | residual activity ([26]; compound 50.0 µM): 97% | residual activity ([27]; compound 1.0 µM): 89% | residual activity ([27]; compound 10.0 µM): 98% | residual activity ([28]; compound 10.0 µM): 101% | residual activity ([28]; compound 50.0 µM): 101% | residual activity ([29]; compound 1.0 µM): 98% | residual activity ([29]; compound 50.0 µM): 96% | residual activity ([30]; compound 10.0 µM): 102% | residual activity ([30]; compound 50.0 µM): 92% | residual activity ([31]; compound 10.0 µM): 107% | residual activity ([31]; compound 50.0 µM): 111% | residual activity ([32]; compound 10.0 µM): 117% | residual activity ([32]; compound 50.0 µM): 104% | residual activity ([33]; compound 10.0 µM): 90% | residual activity ([33]; compound 50.0 µM): 86% | residual activity ([34]; compound 1.0 µM): 108% | residual activity ([34]; compound 10.0 µM): 107% | residual activity ([34]; compound 50.0 µM): 90%
